# Assay results published in publication PMC11596857 (Molecules, 2024).
# pKi: −log10 of the molar value. Like-named read-outs stand apart in the source and are kept apart here.
# Columns and labels:
# [1] = molecular target: T1, proline utilization A (SmPutA) (Sinorhizobium meliloti, UniProt F7X6I3); assay: X-ray crystal structure ([…] Å); Ki from GSALDH activity inhibition; assay type: biochemical
# T1 construct: gene putA; bifunctional PRODH-GSALDH enzyme, His tag removed
# T1 sequence (F7X6I3 1-1233): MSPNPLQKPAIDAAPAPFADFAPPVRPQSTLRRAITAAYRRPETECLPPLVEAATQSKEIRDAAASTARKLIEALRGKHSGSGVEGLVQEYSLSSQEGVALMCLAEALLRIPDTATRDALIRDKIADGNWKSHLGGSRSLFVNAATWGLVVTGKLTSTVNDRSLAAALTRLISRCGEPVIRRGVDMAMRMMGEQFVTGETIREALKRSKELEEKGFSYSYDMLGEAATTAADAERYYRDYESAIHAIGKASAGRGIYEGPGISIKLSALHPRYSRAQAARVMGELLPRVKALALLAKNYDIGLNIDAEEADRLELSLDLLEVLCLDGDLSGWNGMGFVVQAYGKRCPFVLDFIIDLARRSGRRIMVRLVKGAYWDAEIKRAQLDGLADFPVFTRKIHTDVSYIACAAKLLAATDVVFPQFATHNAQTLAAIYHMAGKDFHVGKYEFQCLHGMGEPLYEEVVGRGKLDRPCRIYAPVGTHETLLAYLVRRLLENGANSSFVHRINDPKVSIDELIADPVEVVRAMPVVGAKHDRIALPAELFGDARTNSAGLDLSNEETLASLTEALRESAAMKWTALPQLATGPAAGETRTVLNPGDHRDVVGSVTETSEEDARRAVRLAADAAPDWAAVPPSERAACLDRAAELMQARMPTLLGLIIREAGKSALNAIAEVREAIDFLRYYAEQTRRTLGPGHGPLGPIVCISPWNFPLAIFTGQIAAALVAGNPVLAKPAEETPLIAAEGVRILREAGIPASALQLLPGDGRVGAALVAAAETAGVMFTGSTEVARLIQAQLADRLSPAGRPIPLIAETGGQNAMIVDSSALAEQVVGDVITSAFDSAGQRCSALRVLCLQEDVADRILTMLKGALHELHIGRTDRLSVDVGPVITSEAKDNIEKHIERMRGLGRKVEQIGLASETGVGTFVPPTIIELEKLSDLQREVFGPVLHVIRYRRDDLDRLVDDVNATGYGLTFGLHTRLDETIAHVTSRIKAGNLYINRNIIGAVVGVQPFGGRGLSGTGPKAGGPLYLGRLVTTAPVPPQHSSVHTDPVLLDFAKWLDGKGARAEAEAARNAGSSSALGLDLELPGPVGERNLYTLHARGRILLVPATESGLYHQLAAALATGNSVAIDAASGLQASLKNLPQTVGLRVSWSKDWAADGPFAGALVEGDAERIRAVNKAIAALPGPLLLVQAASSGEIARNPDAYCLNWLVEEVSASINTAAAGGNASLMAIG
# [2] = molecular target: T1, proline utilization A (SmPutA); assay: as above; assay type: biochemical; remark: listed apart in the source
Compound,pKi [1],pKi [2]
"O=C(O)c1cccc2c1OCCO2 [compound 7, 7]",3.49,
"O=C(O)C1CCCNC1 (racemic) [compound 13, 13]",,2.82
